Reference: US6534525B1, “2-substituted piperidine analogs and their use as subtype-selective NMDA receptor antagonists” (Warner-Lambert & Company, priority 1995, dated 2003)
Counter-ions that a name gives are not always drawn. Like-named read-outs stand apart in the source and are kept apart here.

Columns and labels:
[1] = molecular target: NMDA receptor subunits 1A/2A (NR1A+NR2A) (Rattus norvegicus, UniProt P35439+Q00959); test: Electrophysiological assay at cloned NMDA receptor subunits expressed in Xenopus oocytes, 1A/2A; assay type: cell-based
Method: (§1) Electrophysiological Assays at NMDA Receptor Subunits
(§2) The clones were transformed into appropriate host bacteria and plasmid preparations were made with conventional DNA purification techniques. A sample of each clone was linearized by restriction enzyme digestion and cRNA was synthesized with T3 RNA polymerase. The cRNA was diluted to 400 ng/μl and stored in 1 μl aliquots at −80° C. until injection.
(§3) The Xenopus oocyte Expression System
(§4) Follicle-enclosed oocytes were micro-injected with 1:1 mixtures of cRNA:NR1A+NR2A, 2B, 2C or 2D; injecting ˜2,5, or 20 ng of RNA encoding each receptor subunit. NR1A encoding cRNA was injected alone at ˜20 ng. Oocytes were stored in Barth's medium containing (in mM):NaCl, 88; KCl, 1; CaCl2, 0.41; Ca(NO3)2, 0.33; MgSO4, 0.82 NaHCO3, 2.4; HEPES 5, pH 7.4, with 0.1 mg/ml gentamicin sulphate. While oocytes were still surrounded by enveloping ovarian tissues the Barth's medium was supplemented with 0.1% bovine serum.
(§5) Electrical recordings were made using a conventional two-electrode voltage clamp (Dagan TEV-200) over periods ranging between 3-14 days following injection. […] Drugs were applied by bath perfusion. Using oocytes expressing different subunit combinations of NMDA receptor, NMDA currents were activated by co-application of glutamate and glycine. Inhibitory potency of the novel antagonists was assessed on responses elicited by fixed concentrations of glutamate and glycine, by measuring reductions in current induced by progressively increasing concentrations of antagonists.
(§6) Concentration-inhibition curves were fit with equation 1.
(§7) in which Icontrol is the current evoked by agonists alone, pIC50=−log IC50, IC50 is the concentration of antagonist that produces half maximal inhibition, and n is the slope factor. […] For incomplete curves analysis by fitting was unreliable and IC50 values were calculated by simple regression over linear portions of the curves (Origin: Microcal Software).

[2] = molecular target: NMDA receptor subunits 1A/2B (NR1A+NR2B) (Rattus norvegicus, UniProt P35439+Q00960); test: Electrophysiological assay at cloned NMDA receptor subunits expressed in Xenopus oocytes, 1A/2B; assay type: cell-based
Method: as §1, §2, §3, §4, §5, §6, §7

[3] = molecular target: NMDA receptor subunits 1A/2C (NR1A+NR2C) (Rattus norvegicus, UniProt P35439+Q00961); test: Electrophysiological assay at cloned NMDA receptor subunits expressed in Xenopus oocytes, 1A/2C; assay type: cell-based
Method: as §1, §2, §3, §4, §5, §6, §7

[4] = system: maximal electroshock-induced seizures; test: Maximal electroshock-induced seizures (MES); assay type: in vivo, mice; details: Mus musculus, read-out: MES (ED50) (mg/kg)
Method: Maximal Electroshock-induced Seizures
Seizures were induced by application of current (50 mA, 60 pulses/sec, 0.8 sec pulse width, 1 sec duration, d.c.) through saline-coated corneal electrodes using a Ugo Basile ECT device (Model 7801). […] A tonic seizure was defined as a hindlimb extension in excess of 90 degrees from the plane of the body. Results were treated in a quantal manner.

[5] = cloned rat NMDA receptor in Xenopus oocytes, two-electrode voltage clamp, currents activated by glutamate and glycine, read-out: Subunits (IC50(μM)) 1A/2A
[6] = cloned rat NMDA receptor in Xenopus oocytes, two-electrode voltage clamp, currents activated by glutamate and glycine, read-out: Subunits (IC50(μM)) 1A/2B
[7] = cloned rat NMDA receptor in Xenopus oocytes, two-electrode voltage clamp, currents activated by glutamate and glycine, read-out: Subunits (IC50(μM)) 1A/2C

Sequence of NMDA receptor subunits 1A/2A (NR1A+NR2A) (Q00959 23-1464, other chains not shown): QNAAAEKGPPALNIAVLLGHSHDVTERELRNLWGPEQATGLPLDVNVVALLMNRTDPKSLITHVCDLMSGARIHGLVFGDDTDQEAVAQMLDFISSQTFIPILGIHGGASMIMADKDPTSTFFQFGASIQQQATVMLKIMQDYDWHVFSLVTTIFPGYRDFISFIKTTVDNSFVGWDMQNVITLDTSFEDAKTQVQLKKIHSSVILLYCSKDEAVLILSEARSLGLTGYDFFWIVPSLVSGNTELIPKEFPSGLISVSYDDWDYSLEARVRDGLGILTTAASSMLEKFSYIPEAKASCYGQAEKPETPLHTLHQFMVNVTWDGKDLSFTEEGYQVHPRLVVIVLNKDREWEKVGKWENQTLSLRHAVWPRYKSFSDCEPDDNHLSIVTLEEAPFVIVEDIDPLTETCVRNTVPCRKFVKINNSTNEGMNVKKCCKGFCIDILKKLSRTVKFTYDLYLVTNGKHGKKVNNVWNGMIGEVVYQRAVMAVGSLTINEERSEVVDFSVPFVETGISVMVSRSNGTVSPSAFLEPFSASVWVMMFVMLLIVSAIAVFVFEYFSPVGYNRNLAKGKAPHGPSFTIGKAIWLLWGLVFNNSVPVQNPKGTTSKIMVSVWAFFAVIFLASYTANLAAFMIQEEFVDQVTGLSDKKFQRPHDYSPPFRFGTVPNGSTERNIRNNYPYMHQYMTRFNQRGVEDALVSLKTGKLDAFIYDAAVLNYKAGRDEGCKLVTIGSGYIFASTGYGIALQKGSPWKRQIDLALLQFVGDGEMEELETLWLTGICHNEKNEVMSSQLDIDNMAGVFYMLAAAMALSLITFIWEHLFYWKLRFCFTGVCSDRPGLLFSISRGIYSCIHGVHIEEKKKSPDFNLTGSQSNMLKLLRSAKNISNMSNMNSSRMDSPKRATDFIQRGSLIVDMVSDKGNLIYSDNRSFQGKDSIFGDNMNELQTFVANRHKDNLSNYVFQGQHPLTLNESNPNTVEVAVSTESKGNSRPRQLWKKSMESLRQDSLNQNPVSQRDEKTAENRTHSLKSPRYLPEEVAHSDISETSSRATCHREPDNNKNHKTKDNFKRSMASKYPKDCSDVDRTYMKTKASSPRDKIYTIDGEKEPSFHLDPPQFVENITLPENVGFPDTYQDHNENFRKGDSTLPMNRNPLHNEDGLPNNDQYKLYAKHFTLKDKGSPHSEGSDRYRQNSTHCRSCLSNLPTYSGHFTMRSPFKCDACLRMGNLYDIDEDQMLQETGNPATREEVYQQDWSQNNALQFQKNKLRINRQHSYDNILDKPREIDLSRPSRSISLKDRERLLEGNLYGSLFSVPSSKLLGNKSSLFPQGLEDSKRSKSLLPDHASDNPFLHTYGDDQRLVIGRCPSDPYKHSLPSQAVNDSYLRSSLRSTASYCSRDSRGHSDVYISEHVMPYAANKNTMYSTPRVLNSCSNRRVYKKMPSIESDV
Sequence of NMDA receptor subunits 1A/2C (NR1A+NR2C) (Q00961 20-1237, other chains not shown): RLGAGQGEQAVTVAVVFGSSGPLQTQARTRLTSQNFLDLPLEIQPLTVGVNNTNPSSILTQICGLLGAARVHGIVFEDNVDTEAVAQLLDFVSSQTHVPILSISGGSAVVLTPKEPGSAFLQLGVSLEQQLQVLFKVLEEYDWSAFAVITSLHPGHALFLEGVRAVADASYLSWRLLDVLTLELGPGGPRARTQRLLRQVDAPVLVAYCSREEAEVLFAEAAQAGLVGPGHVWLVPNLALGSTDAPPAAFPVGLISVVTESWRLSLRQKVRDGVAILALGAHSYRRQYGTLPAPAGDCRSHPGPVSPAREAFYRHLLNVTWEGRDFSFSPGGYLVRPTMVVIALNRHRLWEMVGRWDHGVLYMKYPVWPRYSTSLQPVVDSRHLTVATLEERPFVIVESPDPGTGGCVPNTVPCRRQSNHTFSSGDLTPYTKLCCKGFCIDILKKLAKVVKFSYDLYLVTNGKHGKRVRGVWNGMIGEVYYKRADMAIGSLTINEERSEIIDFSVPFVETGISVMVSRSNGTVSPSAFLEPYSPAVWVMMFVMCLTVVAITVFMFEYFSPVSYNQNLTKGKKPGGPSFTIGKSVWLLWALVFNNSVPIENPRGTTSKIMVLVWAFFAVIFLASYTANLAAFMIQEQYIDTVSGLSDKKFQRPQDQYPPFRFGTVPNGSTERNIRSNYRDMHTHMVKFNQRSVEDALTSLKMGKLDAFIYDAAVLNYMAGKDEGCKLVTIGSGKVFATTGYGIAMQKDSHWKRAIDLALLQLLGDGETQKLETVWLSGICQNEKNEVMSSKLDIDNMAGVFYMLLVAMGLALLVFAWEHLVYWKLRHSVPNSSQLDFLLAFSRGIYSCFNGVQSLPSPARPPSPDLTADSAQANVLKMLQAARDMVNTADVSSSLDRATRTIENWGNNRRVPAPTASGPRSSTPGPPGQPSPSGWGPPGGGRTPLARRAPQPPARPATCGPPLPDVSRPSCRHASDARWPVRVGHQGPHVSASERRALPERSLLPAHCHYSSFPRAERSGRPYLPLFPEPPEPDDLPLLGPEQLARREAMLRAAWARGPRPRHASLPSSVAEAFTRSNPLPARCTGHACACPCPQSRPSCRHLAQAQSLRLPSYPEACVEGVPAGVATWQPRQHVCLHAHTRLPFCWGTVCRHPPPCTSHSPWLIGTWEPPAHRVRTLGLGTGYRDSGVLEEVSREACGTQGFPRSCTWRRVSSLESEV
Sequence of NMDA receptor subunits 1A/2B (NR1A+NR2B) (Q00960 27-1482, other chains not shown): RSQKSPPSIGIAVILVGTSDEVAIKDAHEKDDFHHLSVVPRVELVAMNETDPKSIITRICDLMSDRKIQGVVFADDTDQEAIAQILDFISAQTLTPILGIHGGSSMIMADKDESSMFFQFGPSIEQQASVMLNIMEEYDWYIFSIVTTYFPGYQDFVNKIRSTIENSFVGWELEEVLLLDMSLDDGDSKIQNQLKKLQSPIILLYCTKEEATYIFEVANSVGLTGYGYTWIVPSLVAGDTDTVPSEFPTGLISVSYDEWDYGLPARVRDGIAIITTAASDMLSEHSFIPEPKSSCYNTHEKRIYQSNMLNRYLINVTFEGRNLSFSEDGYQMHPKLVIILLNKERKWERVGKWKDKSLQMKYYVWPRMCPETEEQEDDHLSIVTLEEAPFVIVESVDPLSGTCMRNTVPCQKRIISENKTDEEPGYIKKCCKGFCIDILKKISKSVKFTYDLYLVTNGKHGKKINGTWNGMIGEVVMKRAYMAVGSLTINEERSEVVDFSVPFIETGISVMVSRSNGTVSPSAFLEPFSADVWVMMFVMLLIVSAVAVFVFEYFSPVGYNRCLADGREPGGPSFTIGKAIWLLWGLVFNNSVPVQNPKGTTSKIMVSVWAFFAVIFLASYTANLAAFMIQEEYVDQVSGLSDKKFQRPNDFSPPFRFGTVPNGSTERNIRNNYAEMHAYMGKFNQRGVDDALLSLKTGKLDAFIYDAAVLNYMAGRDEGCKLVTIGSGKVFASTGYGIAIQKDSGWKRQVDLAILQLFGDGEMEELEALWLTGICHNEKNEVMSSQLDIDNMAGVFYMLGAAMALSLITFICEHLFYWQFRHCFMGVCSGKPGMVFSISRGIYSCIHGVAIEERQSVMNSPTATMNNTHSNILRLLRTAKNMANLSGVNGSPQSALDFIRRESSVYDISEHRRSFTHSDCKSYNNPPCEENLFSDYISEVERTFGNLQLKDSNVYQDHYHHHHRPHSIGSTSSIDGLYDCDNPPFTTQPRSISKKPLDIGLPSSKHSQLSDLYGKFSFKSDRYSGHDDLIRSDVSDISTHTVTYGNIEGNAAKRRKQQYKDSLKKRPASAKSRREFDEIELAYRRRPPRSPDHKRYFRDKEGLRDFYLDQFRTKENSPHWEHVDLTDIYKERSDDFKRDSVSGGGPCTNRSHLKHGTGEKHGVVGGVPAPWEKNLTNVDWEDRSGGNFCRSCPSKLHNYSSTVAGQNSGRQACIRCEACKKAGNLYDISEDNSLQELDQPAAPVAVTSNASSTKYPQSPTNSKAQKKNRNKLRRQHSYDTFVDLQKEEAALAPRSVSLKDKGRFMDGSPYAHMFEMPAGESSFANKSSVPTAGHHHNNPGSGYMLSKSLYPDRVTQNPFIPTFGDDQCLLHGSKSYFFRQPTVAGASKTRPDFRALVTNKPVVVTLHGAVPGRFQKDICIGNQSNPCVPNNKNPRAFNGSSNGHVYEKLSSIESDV

Structure (SMILES)	melting point [°C]	IC50 [1, 5] [µM]	IC50 [2, 6] [µM]	IC50 [3, 7] [µM]	further results
Br.FC(F)(F)c1ccccc1OCCCCN1CCCCC1Cc1ccccc1 (centres unmarked)	136 to 140				
Br.FC(F)(F)c1cccc(OCCCCN2CCCCC2Cc2ccccc2)c1 (centres unmarked)	143.5 to 144.5				
Br.FC(F)(F)c1ccc(OCCCCN2CCCCC2Cc2ccccc2)cc1 (centres unmarked)	130 to 134				
Br.Fc1cccc(OCCCCN2CCCCC2Cc2ccccc2)c1 (centres unmarked)	119 to 123				
Fc1ccc(OCC[n+]2ccccc2Cc2ccc(Cl)cc2)cc1.[Br-]	179 to 180				
Br.c1ccc(CCN2CCCCC2Cc2ccccc2)cc1 (centres unmarked)	162.5 to 164.5				
Br.c1ccc(CCCCN2CCCCC2Cc2ccccc2)cc1 (centres unmarked)	133 to 135				
Br.c1ccc(CC2CCCCN2CCCCOc2ccccc2)cc1 (centres unmarked)	100 to 103				
c1ccc(CC2CCCCN2CCCCCOc2ccccc2)cc1 (centres unmarked) (as salt: hydrobromid) [Example 20, 2-Benzyl-1-(5-phenoxypentyl)piperidine hydrobromide]	137.5 to 139.5				
O=[N+]([O-])c1ccc(OCCN2CCCCC2Cc2ccccc2)cc1 (centres unmarked) (as salt: hydrobromid) [Example 21, 2-Benzyl-1-(2-(4-nitrophenoxy)ethyl)-piperidine hydrobromide]	180 to 182				
Nc1ccc(OCCN2CCCCC2Cc2ccccc2)cc1 (centres unmarked) (as salt: hydrobromid) [Example 22, 1-(2-(4-Aminophenoxy)ethyl)-2-benzylpiperidine dihydrobromide]	130				
c1ccc(CC2CCCCN2Cc2ccccc2)cc1 (centres unmarked) [Example 2, 1,2-Dibenzylpiperidine, hydrobromide]		15	19	33	
Br.c1ccc(CCCN2CCCCC2Cc2ccccc2)cc1 (centres unmarked) [Example 4, 2-Benzyl-1-(3-phenylpropyl)piperidine, hydrobromide]	155 to 157	8	15	125	
c1ccc(CCCCN2CCCCC2Cc2ccccc2)cc1 (centres unmarked) [Example 5, 2-Benzyl-1-(4-phenylbutyl)piperidine]		5	8	55	ED50 [4]: 4 mg/kg
c1ccc(CC2CCCCN2CCOc2ccccc2)cc1 (centres unmarked) [Example 6, 2-Benzyl-1-(2-phenoxyethyl)piperidine]		17	25	130	
Br.c1ccc(CC2CCCCN2CCCOc2ccccc2)cc1 (centres unmarked) [Example 7, 2-Benzyl-1-(3-phenoxypropyl)piperidine hydrobromide]	119 to 121	4	12	45	ED50 [4]: 2.5 mg/kg
c1ccc(CC2CCCCN2CCCCOc2ccccc2)cc1 (centres unmarked) [Example 8, 2-Benzyl-1-(4-phenoxybutyl)piperidine]		3	8	45	ED50 [4]: 4 mg/kg
c1ccc(CC2CCCCN2CCCCCOc2ccccc2)cc1 (centres unmarked) [Example 20, 2-Benzyl-1-(5-phenoxypentyl)piperidine hydrobromide]		14	22	70	
O=[N+]([O-])c1ccc(OCCN2CCCCC2Cc2ccccc2)cc1 (centres unmarked) [Example 21, 2-Benzyl-1-(2-(4-nitrophenoxy)ethyl)-piperidine hydrobromide]		60	35	240	
Nc1ccc(OCCN2CCCCC2Cc2ccccc2)cc1 (centres unmarked) [Example 22, 1-(2-(4-Aminophenoxy)ethyl)-2-benzylpiperidine dihydrobromide]		80	6	180	
Cl.Fc1ccc(OCCN2CCCCC2Cc2ccc(Cl)cc2)cc1 (centres unmarked) [Example 24, 2-(4-Chlorobenzyl)-1-(2-(4-fluorophenoxy)ethyl)piperidine hydrochloride]	163 to 165	55	22	160	
Cl.Oc1ccc(OCCN2CCCCC2Cc2ccc(Cl)cc2)cc1 (centres unmarked) [Example 25, 2-(4-Chlorobenzyl)-1-(2-(4-hydroxyphenoxy)ethyl)piperidine hydrochloride]	229 to 230				IC50 [1]: 62 µM; IC50 [2]: 4.2 µM; IC50 [3]: 160 µM
Cl.Oc1ccc(OCCN2CCCCC2Cc2ccccc2)cc1 (centres unmarked) [Example 26, 2-Benzyl-1-(2-(4-hydroxyphenoxy)ethyl)piperidine hydrochloride]	215 to 216				IC50 [1]: 80 µM; IC50 [2]: 15 µM; IC50 [3]: 150 µM
Cl.Oc1ccc(OCCCN2CCCCC2Cc2ccccc2)cc1 (centres unmarked) [Example 27, 2-Benzyl-1-(3-(4-hydroxyphenoxy)propyl)piperidine hydrochloride]	163 to 164	30	16	40	
Oc1ccc(OCCCCN2CCCCC2Cc2ccccc2)cc1 (centres unmarked) [Example 28, 2-Benzyl-1-(4-(4-hydroxyphenoxy)butyl)piperidine hydrochloride]		15	10	110	
O=c1[nH]c2ccc(OCCN3CCCCC3Cc3ccccc3)cc2[nH]1 (centres unmarked) [Example 30, 2-Benzyl-1-(4-(2-oxobenzimidazol-5-oxy)ethyl)piperidine]		7.5	5	33	
